Test: Excipient compatibility studies (glycerol)
Format: physicochemical
Details: mixture with glycerol
Procedure: Various studies were carried out to determine an appropriate capsule shell formulation.

ibuprofen lysine [ibuprofen lysinate]
Compatibility with glycerol (colour change indicating degradation): turned brownish

From US20210353573A1, “A SOFT-GEL CAPSULE FORMULATION, METHOD OF MANUFACTURE AND USE THEREOF” (Chanelle Pharmaceuticals Manufacturing Ltd., priority 2018, published 2021)
